Test results published in US20220046923A1, “HERBICIDAL CINNOLINIUM COMPOUNDS” (SYNGENTA CROP PROTECTION AG, priority 2018, published 2022).
Structures can show the parent of a compound that is named as a salt.

How the values were obtained:
Experiment in all cases: Post-emergence efficacy, glasshouse spray test
Type in all cases: in vivo
[1] = tested on: Digitaria sanguinalis (DIGSA); settings: evaluated after 13 days; for pest or weed control at 1000 g/ha / pest or weed control at 500 g/ha: Digitaria sanguinalis, post-emergence, 312 h, read-out: Control of weed species DIGSA after post-emergence application (100=total damage to plant; 0=no damage to plant); for pest or weed control at 500 g/ha: application rate 500 g/Ha
Method in brief: (§1)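 Plants sown in standard soil were grown 14 days in a glasshouse (24/16 °C day/night, 14 h light, 65% humidity) and then sprayed post-emergence. Compound in acetone/IF50 emulsifier mix was diluted in 0.25% or 1% Empicol ESC70 + 1% ammonium sulphate. Damage was scored after 13 days (0 = none, 100 = total).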

[2] = tested on: Ipomoea hederacea (IPOHE); settings: evaluated after 13 days; for pest or weed control at 1000 g/ha / pest or weed control at 500 g/ha: Ipomoea hederacea, post-emergence, 312 h, read-out: Control of weed species IPOHE after post-emergence application (100=total damage to plant; 0=no damage to plant); for pest or weed control at 500 g/ha: application rate 500 g/Ha
Method in brief: as §1

Lolium perenne (LOLPE) = settings: evaluated after 13 days; for pest or weed control at 1000 g/ha / pest or weed control at 500 g/ha: Lolium perenne, post-emergence, 312 h, read-out: Control of weed species LOLPE after post-emergence application (100=total damage to plant; 0=no damage to plant); for pest or weed control at 500 g/ha: application rate 500 g/Ha
Method in brief: as §1

[3] = tested on: Echinochloa crus-galli (ECHCG); settings: evaluated after 13 days; for pest or weed control at 1000 g/ha / pest or weed control at 500 g/ha: Echinochloa crus-galli, post-emergence, 312 h, read-out: Control of weed species ECHCG after post-emergence application (100=total damage to plant; 0=no damage to plant); for pest or weed control at 500 g/ha: application rate 500 g/Ha
Method in brief: as §1

Setaria faberi (SETFA) = settings: evaluated after 13 days; for pest or weed control at 1000 g/ha / pest or weed control at 500 g/ha: Setaria faberi, post-emergence, 312 h, read-out: Control of weed species SETFA after post-emergence application (100=total damage to plant; 0=no damage to plant); for pest or weed control at 500 g/ha: application rate 500 g/Ha
Method in brief: as §1

[4] = tested on: Amaranthus palmeri (AMAPA); settings: evaluated after 13 days; for pest or weed control at 1000 g/ha / pest or weed control at 500 g/ha: Amaranthus palmeri, post-emergence, 312 h, read-out: Control of weed species AMAPA after post-emergence application (100=total damage to plant; 0=no damage to plant); for pest or weed control at 500 g/ha: application rate 500 g/Ha
Method in brief: as §1

Eleusine indica (ELEIN) = settings: evaluated after 13 days; for pest or weed control at 1000 g/ha / pest or weed control at 500 g/ha: Eleusine indica, post-emergence, 312 h, read-out: Control of weed species ELEIN after post-emergence application (100=total damage to plant; 0=no damage to plant); for pest or weed control at 500 g/ha: application rate 500 g/Ha
Method in brief: as §1

[5] = tested on: Euphorbia heterophylla (EPHHL); settings: evaluated after 13 days; for pest or weed control at 1000 g/ha / pest or weed control at 500 g/ha: Euphorbia heterophylla, post-emergence, 312 h, read-out: Control of weed species EPHHL after post-emergence application (100=total damage to plant; 0=no damage to plant); for pest or weed control at 500 g/ha: application rate 500 g/Ha
Method in brief: as §1

[6] = tested on: Chenopodium album (CHEAL); settings: evaluated after 13 days; for pest or weed control at 1000 g/ha / pest or weed control at 500 g/ha: Chenopodium album, post-emergence, 312 h, read-out: Control of weed species CHEAL after post-emergence application (100=total damage to plant; 0=no damage to plant); for pest or weed control at 500 g/ha: application rate 500 g/Ha
Method in brief: as §1

SMILES	pest or weed control at 1000 g/ha ([1]; application rate 1000 g/Ha) [%]	pest or weed control at 1000 g/ha ([2]; application rate 1000 g/Ha) [%]	pest or weed control at 1000 g/ha (Lolium perenne (LOLPE); application rate 1000 g/Ha) [%]	pest or weed control at 1000 g/ha ([3]; application rate 1000 g/Ha) [%]	pest or weed control at 1000 g/ha (Setaria faberi (SETFA); application rate 1000 g/Ha) [%]	pest or weed control at 1000 g/ha ([4]; application rate 1000 g/Ha) [%]	pest or weed control at 1000 g/ha (Eleusine indica (ELEIN); application rate 1000 g/Ha) [%]	pest or weed control at 1000 g/ha ([5]; application rate 1000 g/Ha) [%]	pest or weed control at 1000 g/ha ([6]; application rate 1000 g/Ha) [%]	further results
Cc1cc(C)c2n[n+](CC(=O)OC(C)C)cc(C)c2c1 [Compound A6, isopropyl 2-(4,6,8-trimethylcinnolin-2-ium-2-yl)acetate chloride]	10	10	10	10	10	40	30	30	20	–
CC(C(=O)OC(C)(C)C)[n+]1ccc2ccccc2n1 (stereo not drawn) [Compound A116]	–	–	–	–	–	–	–	–	–	pest or weed control at 500 g/ha [1]: 40%; pest or weed control at 500 g/ha [2]: 10%; pest or weed control at 500 g/ha (Lolium perenne (LOLPE)): 20%; pest or weed control at 500 g/ha [3]: 30%; pest or weed control at 500 g/ha (Setaria faberi (SETFA)): 30%; pest or weed control at 500 g/ha [4]: 60%; pest or weed control at 500 g/ha (Eleusine indica (ELEIN)): 30%; pest or weed control at 500 g/ha [5]: 30%; pest or weed control at 500 g/ha [6]: 50%
COc1c[n+](CCS(=O)(=O)[O-])nc2ccccc12 [Compound A38]	20	30	10	30	10	20	10	30	40	–
Cc1ccc2cc[n+](CCS(=O)(=O)[O-])nc2c1 [Compound A87]	40	70	40	40	50	100	80	100	100	–
COP(=O)([O-])CCC[n+]1ccc2ccccc2n1 [Compound A72, 3-cinnolin-2-ium-2-ylpropyl(methoxy)phosphinate]	50	100	50	50	60	70	70	50	70	–
CC(CC(=O)O)[n+]1ccc2ccccc2n1 (stereo not drawn) [Compound A115, 3-cinnolin-2-ium-2-ylbutanoic Acid 2,2,2-trifluoroacetate]	–	–	–	–	–	–	–	–	–	pest or weed control at 500 g/ha [1]: 60%; pest or weed control at 500 g/ha [2]: 20%; pest or weed control at 500 g/ha (Lolium perenne (LOLPE)): 20%; pest or weed control at 500 g/ha [3]: 20%; pest or weed control at 500 g/ha (Setaria faberi (SETFA)): 30%; pest or weed control at 500 g/ha [4]: 100%; pest or weed control at 500 g/ha (Eleusine indica (ELEIN)): 60%; pest or weed control at 500 g/ha [5]: 20%; pest or weed control at 500 g/ha [6]: 40%
O=S(=O)([O-])CC[n+]1ccc2ccccc2n1 [Compound A24, 2-cinnolin-2-ium-2-ylethanesulfonate]	80	80	40	40	60	60	80	70	60	–
N[C@@H](CCC[n+]1ccc2ccccc2n1)C(=O)[O-].O=C(O)C(F)(F)F [Compound A18]	–	–	–	–	–	–	–	–	–	Control of weed species DIGSA after post-emergence application (100=total damage to plant; 0=no damage to plant) ([1]; application rate 1000 g/Ha): 40; Control of weed species IPOHE after post-emergence application (100=total damage to plant; 0=no damage to plant) ([2]; application rate 1000 g/Ha): 30; Control of weed species LOLPE after post-emergence application (100=total damage to plant; 0=no damage to plant) (Lolium perenne (LOLPE); application rate 1000 g/Ha): 30; Control of weed species ECHCG after post-emergence application (100=total damage to plant; 0=no damage to plant) ([3]; application rate 1000 g/Ha): 30; Control of weed species SETFA after post-emergence application (100=total damage to plant; 0=no damage to plant) (Setaria faberi (SETFA); application rate 1000 g/Ha): 20; Control of weed species AMAPA after post-emergence application (100=total damage to plant; 0=no damage to plant) ([4]; application rate 1000 g/Ha): 60; Control of weed species ELEIN after post-emergence application (100=total damage to plant; 0=no damage to plant) (Eleusine indica (ELEIN); application rate 1000 g/Ha): 90; Control of weed species EPHHL after post-emergence application (100=total damage to plant; 0=no damage to plant) ([5]; application rate 1000 g/Ha): 20; Control of weed species CHEAL after post-emergence application (100=total damage to plant; 0=no damage to plant) ([6]; application rate 1000 g/Ha): 100
O=C(O)c1ccccc1C[n+]1ccc2ccccc2n1 [Compound A55]	10	30	0	20	0	10	10	30	30	–
O=S(=O)([O-])OCCC[n+]1ccc2ccccc2n1 [Compound A27]	70	50	40	50	70	100	80	60	90	–
O=S(=O)([O-])CC[n+]1ccc2cccc(-c3ccccc3)c2n1 [Compound A52, 2-(8-phenylcinnolin-2-ium-2-yl)ethanesulfonate]	40	30	20	20	30	100	70	100	40	–
COC(=O)C[n+]1ccc2cc(OC)ccc2n1 [Compound A60]	30	30	10	20	10	0	40	10	0	–
O=S(=O)([O-])OC[n+]1ccc2ccccc2n1 [Compound A31, cinnolin-2-ium-2-ylmethyl hydrogen sulfate]	0	30	0	0	0	30	0	30	20	–
c1ccc2n[n+](Cc3nnn[n-]3)ccc2c1 [Compound A20]	20	0	10	20	10	30	20	70	10	–
